This test concerns CD2F1 mice, L1210 leukemia ip, survival T/C. In words: NCI In Vivo Anticancer Drug Screen. Data for tumor model L1210 Leukemia (intraperitoneal) in CD2F1 (CDF1) mice. The settings on record: endpoint: mean survival time, higher = longer survival. An outline of the steps:
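Implant tumor; dose compound or vehicle; measure endpoint in both groups; report treated divided by control.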

The mark [1] stands for this setting: dose: 50.0 mg/kg/injection, schedule: Q04DX002 (ip), vehicle: saline with Tween-80.
[2] abbreviates: dose: 100.0 mg/kg/injection, schedule: Q04DX002 (ip), vehicle: saline with Tween-80.
[3] abbreviates: dose: 200.0 mg/kg/injection, schedule: Q04DX002 (ip), vehicle: saline with Tween-80.
[4] abbreviates: dose: 100.0 mg/kg/injection, schedule: Q01DX001 (ip), vehicle: saline.
Setting [5] is: dose: 200.0 mg/kg/injection, schedule: Q01DX001 (ip), vehicle: saline.
The mark [6] stands for this setting: dose: 25.0 mg/kg/injection, schedule: Q04DX003 (ip), vehicle: saline.
The mark [7] stands for this setting: dose: 50.0 mg/kg/injection, schedule: Q04DX003 (ip), vehicle: saline.
Setting [8] is: dose: 100.0 mg/kg/injection, schedule: Q01DX009 (ip), vehicle: saline with Tween-80.
The mark [9] stands for this setting: dose: 200.0 mg/kg/injection, schedule: Q01DX009 (ip), vehicle: saline with Tween-80.
[10] abbreviates: dose: 400.0 mg/kg/injection, schedule: Q01DX009 (ip), vehicle: saline with Tween-80.
Where [11] appears, read: dose: 100.0 mg/kg/injection, schedule: Q04DX003 (ip), vehicle: saline with Tween-80.
[12] abbreviates: dose: 200.0 mg/kg/injection, schedule: Q04DX003 (ip), vehicle: saline with Tween-80.
Where [13] appears, read: dose: 100.0 mg/kg/injection, schedule: Q04DX003 (ip), vehicle: saline.
Setting [14] is: dose: 400.0 mg/kg/injection, schedule: Q04DX003 (ip), vehicle: saline with Tween-80.
Setting [15] is: dose: 400.0 mg/kg/injection, schedule: Q01DX001 (ip), vehicle: saline with Tween-80.
[16] abbreviates: dose: 100.0 mg/kg/injection, schedule: Q01DX009 (ip), vehicle: saline.
Setting [17] is: dose: 200.0 mg/kg/injection, schedule: Q01DX009 (ip), vehicle: saline.
Where [18] appears, read: dose: 400.0 mg/kg/injection, schedule: Q01DX009 (ip), vehicle: saline.
Setting [19] is: dose: 400.0 mg/kg/injection, schedule: Q04DX003 (ip), vehicle: saline.

Toxic doses and inconclusive results are not listed.

Regarding `CC1(C)CC(=O)C2(CNC3=C(CCC(C)(C)C3)C2)C(=O)C1`, the T/C is 91 % of control under setting [1]; 91 % of control under setting [2]; 100 % of control under setting [3]; 91 % of control (dose: 400.0 mg/kg/injection, schedule: Q04DX002 (ip), vehicle: saline with Tween-80).
Turning to `CC(C)CC(C)COC(=O)c1c(Cl)c(Cl)c(Cl)c(Cl)c1C(=O)O` (stereo unspecified), the T/C is 90 % of control under setting [4] and 90 % of control under setting [5].
Regarding `[B-][N+]1(C)CC[N+]([B-])(C)CC1` (stereo unspecified), the T/C reads like this: (dose: 5.0 mg/kg/injection, schedule: Q01DX009 (ip), vehicle: saline with Tween-80) 104 % of control; (dose: 5.0 mg/kg/injection, schedule: Q04DX003 (ip), vehicle: saline) 103 % of control; (dose: 10.0 mg/kg/injection, schedule: Q01DX009 (ip), vehicle: saline with Tween-80) 96 % of control; (dose: 10.0 mg/kg/injection, schedule: Q04DX003 (ip), vehicle: saline) 98 % of control; (dose: 20.0 mg/kg/injection, schedule: Q04DX003 (ip), vehicle: saline) 98 % of control.
`Cc1cccc(Cl)c1NC(=O)C(C)N1CCCC1` (stereo unspecified): the T/C is 100 % of control (dose: 12.5 mg/kg/injection, schedule: Q04DX003 (ip), vehicle: saline); 107 % of control under setting [6]; 104 % of control under setting [7].
On to `Cn1c(=O)c2c(nc(-[n+]3ccccc3)n2C)n(C)c1=O`, for which the T/C was 94 % of control (dose: 12.5 mg/kg/injection, schedule: Q01DX005 (ip), vehicle: water); 100 % of control (dose: 25.0 mg/kg/injection, schedule: Q01DX005 (ip), vehicle: water); 103 % of control (dose: 50.0 mg/kg/injection, schedule: Q01DX005 (ip), vehicle: water); 103 % of control (dose: 100.0 mg/kg/injection, schedule: Q01DX005 (ip), vehicle: water); 120 % of control (dose: 200.0 mg/kg/injection, schedule: Q01DX005 (ip), vehicle: water).
In the case of `CC(=O)OCc1c(Cl)ccc(Cl)c1Cl`, the T/C was 98 % of control under setting [8]; 107 % of control (dose: 100.0 mg/kg/injection, schedule: Q04DX003 (ip), vehicle: saline sonified); 100 % of control under setting [9]; 96 % of control (dose: 200.0 mg/kg/injection, schedule: Q04DX003 (ip), vehicle: saline sonified); 100 % of control under setting [10]; 96 % of control (dose: 400.0 mg/kg/injection, schedule: Q04DX003 (ip), vehicle: saline sonified).
On to `O=C(CC(O)(C(F)(F)F)C(F)(F)F)c1ccc(Cl)cc1`, for which the T/C (dose: 50.0 mg/kg/injection, schedule: Q01DX009 (ip), vehicle: other) was 103 % of control; the T/C (dose: 100.0 mg/kg/injection, schedule: Q01DX009 (ip), vehicle: other) is 103 % of control; the T/C under setting [11] was 107 % of control; the T/C (dose: 200.0 mg/kg/injection, schedule: Q01DX009 (ip), vehicle: other) is 87 % of control; the T/C under setting [12] was 107 % of control.
As to `CCOC(OCC)c1cc[n+](CCc2ccc(OC)c(OC)c2)cc1`, the T/C under setting [13] was 96 % of control.
In the case of `Fc1ccc2nc(C(F)(F)F)cc(Br)c2c1`, the T/C under setting [11] is 103 % of control, the T/C under setting [12] was 98 % of control and the T/C under setting [14] is 101 % of control.
Turning to `CC(=O)/C(N=O)=C(/C)O`, the T/C is, setting by setting: (dose: 200.0 mg/kg/injection, schedule: Q01DX001 (ip), vehicle: saline with Tween-80) 88 % of control; under setting [15], 92 % of control.
For the compound `O=[N+]([O-])c1ccc2c(c1)S(=O)c1cc([N+](=O)[O-])c(Br)cc1-2` (stereo unspecified) (tested in a mixture with another compound), the T/C under setting [1] is 108 % of control, the T/C under setting [2] was 108 % of control and the T/C under setting [3] is 102 % of control.
Regarding `CCCCN(CCCC)CCNc1ccc(C)c2sc3ccccc3c(=O)c12`, the T/C is, setting by setting: (dose: 50.0 mg/kg/injection, schedule: Q01DX001 (ip), vehicle: saline) 91 % of control; under setting [4], 88 % of control; under setting [16], 101 % of control; under setting [13], 91 % of control; under setting [5], 91 % of control; under setting [17], 91 % of control. Moreover, the T/C runs as follows: (dose: 400.0 mg/kg/injection, schedule: Q01DX001 (ip), vehicle: saline) 88 % of control; under setting [18], 94 % of control; under setting [19], 87 % of control.
As to `CC1(OO)CC(=O)OO1` (stereo unspecified), the T/C (dose: 5.0 mg/kg/injection, schedule: Q01DX001 (ip), vehicle: saline) was 90 % of control; the T/C (dose: 10.0 mg/kg/injection, schedule: Q01DX001 (ip), vehicle: saline) was 95 % of control; the T/C (dose: 20.0 mg/kg/injection, schedule: Q01DX001 (ip), vehicle: saline) was 92 % of control.
For `O=P(O)(O)OCC(O)CO.[NH-]C1CCCCC1[NH-].[Pt+2]` (stereo unspecified), the T/C (dose: 1.17 mg/kg/injection, schedule: Q04DX003 (ip), vehicle: other) was 115 % of control; the T/C (dose: 9.38 mg/kg/injection, schedule: Q04DX003 (ip), vehicle: other) is 231 % of control; the T/C (dose: 18.75 mg/kg/injection, schedule: Q04DX003 (ip), vehicle: other) was 186 % of control; the T/C (dose: 37.5 mg/kg/injection, schedule: Q04DX003 (ip), vehicle: other) was 104 % of control.
In the case of `CC[C@H](C)c1occ2c(O)c(C(=O)O)c(=O)cc-2c1C`, the T/C is 98 % of control under setting [4] and 101 % of control under setting [5].
On to `NP(N)(=O)c1ccccc1`, for which the T/C is 94 % of control under setting [13]; 98 % of control (dose: 200.0 mg/kg/injection, schedule: Q04DX003 (ip), vehicle: saline); 94 % of control under setting [19].
Regarding `CCCCC(C(=O)O)c1ccccc1` (stereo unspecified), the T/C was 98 % of control under setting [16], 98 % of control under setting [17] and 101 % of control under setting [18].
Take `COCC/C(COC)=N\N=C(/CCOC)COC`: the T/C reads like this: under setting [16], 102 % of control; (dose: 100.0 mg/kg/injection, schedule: Q04DX003 (ip), vehicle: Klucel (hydroxypropylcellulose) (HPC)) 102 % of control; under setting [11], 101 % of control; under setting [17], 108 % of control; (dose: 200.0 mg/kg/injection, schedule: Q04DX003 (ip), vehicle: Klucel (hydroxypropylcellulose) (HPC)) 102 % of control; under setting [12], 101 % of control. Also, the T/C is 114 % of control (dose: 400.0 mg/kg/injection, schedule: Q04DX003 (ip), vehicle: Klucel (hydroxypropylcellulose) (HPC)) and 106 % of control under setting [14].
On to `CCCCCCCCCCCCNC(=O)c1cc[n+](Cc2ccc(Cl)c(Cl)c2)cc1`, for which the T/C reads like this: under setting [11], 103 % of control; under setting [12], 96 % of control; under setting [14], 94 % of control.
Consider `O=S(=O)(/N=C/c1ccccc1)c1ccc(Cl)cc1`, for which the T/C runs as follows: (dose: 50.0 mg/kg/injection, schedule: Q01DX009 (ip), vehicle: saline with Tween-80) 100 % of control; under setting [8], 107 % of control.
For the compound `O=C1c2ccccc2C(c2ccccc2)(c2ccccc2)N1c1ccccc1`, the T/C was 107 % of control under setting [11], 104 % of control under setting [12] and 107 % of control under setting [14].
Turning to `CCCCCCCCCCCCCCCCOc1ccc(OCCCCCCCCC)cc1`, the T/C under setting [15] is 86 % of control.
For the compound `COC(=O)c1ccc([N+](=O)[O-])cc1O`, the T/C is 105 % of control under setting [8], 102 % of control under setting [9] and 97 % of control under setting [10].
Consider `Cc1c2ncnc-2ncn1O`, for which the T/C under setting [6] was 97 % of control, the T/C under setting [7] was 101 % of control and the T/C under setting [13] was 104 % of control.
As to `CCCCNS(=O)(=O)c1ccccc1`, the T/C reads like this: under setting [11], 97 % of control; under setting [12], 96 % of control.
As for `CC(=O)Nc1cccc(/C=C/c2ccc([N+](=O)[O-])cc2)c1`, the T/C (dose: 100.0 mg/kg/injection, schedule: Q01DX001 (ip), vehicle: Klucel (hydroxypropylcellulose) (HPC)) is 100 % of control; the T/C (dose: 200.0 mg/kg/injection, schedule: Q01DX001 (ip), vehicle: Klucel (hydroxypropylcellulose) (HPC)) is 103 % of control; the T/C (dose: 400.0 mg/kg/injection, schedule: Q01DX001 (ip), vehicle: Klucel (hydroxypropylcellulose) (HPC)) is 93 % of control.

Source of the values: PubChem BioAssay AID256 (DTP/NCI, 2004).
